This is an account of results in patent publication US20230212164A1, “ANNULATED 2-AMINO-3-CYANO THIOPHENES AND DERIVATIVES FOR THE TREATMENT OF CANCER” (BOEHRINGER INGELHEIM INTERNATIONAL GMBH, priority 2020, published 2023).

In the first assay the target is T1, protein-protein interaction between SOS1 and KRAS G12C (Homo sapiens, UniProt P01116, C118S/C51S/C80L/G12C).
T1 construct: His6 (N)
T1 sequence (P01116 1-169 isoform P01116-2 G12C/C51S/C80L/C118S): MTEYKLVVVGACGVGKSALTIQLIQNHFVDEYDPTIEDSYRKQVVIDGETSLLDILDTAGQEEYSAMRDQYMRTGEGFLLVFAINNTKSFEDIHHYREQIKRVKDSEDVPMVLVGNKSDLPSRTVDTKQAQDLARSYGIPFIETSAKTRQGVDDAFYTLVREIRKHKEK
Kind of assay: KRAS::SOS1 AlphaScreen binding assay. The settings on record: Table 36. How it is done:
KRAS::SOS1 AlphaScreen Binding Assay
Assay buffer: • 1×PBS • 0.1% BSA • 0.05% Tween 20
AlphaLISA Glutathione Acceptor Beads and AlphaScreen Streptavidin Donor Beads are mixed in assay buffer at a concentration of 10 μg/mL (final assay concentration) each prior to use and kept at room temperature.
Compounds are diluted to a final start concentration of 100 μM and are tested in duplicate. […] For compound a start concentration of 100 μM, 150 nL of compound solution is transferred per well in 11 concentrations in duplicate with serial 1:5 dilutions.
The assay is run using a fully automated robotic system in a darkened room below 100 Lux. 10 μL of KRAS::SOS1 GDP mix is added into columns 1-24 to the 150 nL of compound solution (final dilution in the assay 1:100, final DMSO concentration 1%).
After 30 minutes incubation time 5 μL of bead mix is added into columns 1-23. Plates are kept at room temperature in a darkened incubator. After further 60 minutes incubation, the signal is measured using a PerkinElmer Envision HTS Multilabel Reader using the AlphaScreen specifications from PerkinElmer. Each plate contains the following controls: • diluted DMSO+KRAS::SOS1 GDP mix+bead mix • diluted DMSO+KRAS::SOS1 GDP mix
IC50 values are calculated and analyzed using a 4 parametric logistic model.
For orientation: IC50 means the midpoint of a concentration-inhibition curve. In turn, `C=CC(=O)N1CCC(Oc2cc(-c3noc(C4(C)CCCc5sc(N)c(C#N)c54)n3)nc(N3CCN(C)C[C@@H]3C)c2)CC1` (stereo partly shown) [Ia-114] had a half-inhibitory concentration (IC50) of 11 nM.

In the case of `C=CC(=O)N1CCN(c2cc(-c3noc([C@@]4(C)CCCc5sc(N)c(C#N)c54)n3)nc(N3CCC4(CC(O)C4)C3)n2)CC1` (stereo partly shown) [Ia-76], the IC50 stood at 391 nM.

In the case of `C=CC(=O)N1CCN(c2cc(-c3noc([C@@]4(C)CCCc5sc(N)c(C#N)c54)n3)nc(OC(C)CN3CCN(C)CC3)n2)CC1` (stereo partly shown) [Ia-66], the IC50 stood at 9 nM.

Compound `C=CC(=O)N1CCN(c2cc(-c3noc([C@@]4(C)CCCc5sc(N)c(C#N)c54)n3)nc(N3CCN(C)CC3)c2)CC1` [Ia-116] yielded a half-inhibitory concentration (IC50) of 31 nM.

Turning to `C=CC(=O)N1CC(N2CCN(c3cc(-c4noc([C@@]5(C)CCCc6sc(N)c(C#N)c65)n4)nc(N4CCCN(CCCOC)C[C@@H]4C)n3)CC2)C1` [Ia-99], the concentration for half-maximal inhibition (IC50) worked out at 45 nM.

The compound `C=CC(=O)N1CCN(c2cc(-c3noc([C@@]4(C)CCCc5sc(N)c(C#N)c54)n3)nc(N3CCCN(C)C[C@@H]3C)n2)CC1` [Ia-131] had an IC50 of 5 nM.

The compound `C=CC(=O)N1CCN(c2cc(-c3noc([C@@]4(C)CCCc5sc(N)c(C#N)c54)n3)nc(N3CCCN(CC4(C)COC4)C[C@@H]3C)n2)CC1` [Ia-41] displayed an IC50 of 1.8 nM.

Compound `C=CC(=O)N1CCN(c2cc(-c3noc(C4(C)CCCc5sc(N)c(C#N)c54)n3)nc(N3CCN(C)C[C@@H]3CC)c2)CC1` (stereo partly shown) [Ia-15] had a half-inhibitory concentration (IC50) of 53 nM.

Compound `C=CC(=O)N1CCCN(c2cc(-c3noc([C@@]4(C)CCCc5sc(N)c(C#N)c54)n3)nc(O[C@@H](C)[C@@H]3CCCN3C)n2)CC1` [Ia-52] showed a 50% inhibitory concentration (IC50) of 1.8 nM.

`C=CC(=O)N1CCN(c2cc(-c3noc(C4(C)CCCc5sc(N)c(C#N)c54)n3)nc(N3CCC(N4CC[C@@H](F)C4)CC3)c2)CC1` (stereo partly shown) [Ia-39] displayed an IC50 of 10 nM.

The compound `C=CC(=O)N1CCN(c2cc(-c3noc([C@@]4(C)CCCc5sc(N)c(C#N)c54)n3)nc(OC3CC4(CCN(C)C4)C3)n2)CC1` (stereo partly shown) [Ia-69] gave a half-inhibitory concentration (IC50) of 23 nM.

Turning to `C=CC(=O)N1CCC2(C1)CN(c1cc(-c3noc([C@@]4(C)CCCc5sc(N)c(C#N)c54)n3)cc(N3CCCN(C)C[C@@H]3C)n1)C2` [Ia-95], the half-inhibitory concentration (IC50) amounted to 46 nM.

As for `C=CC(=O)N1CCN(c2cc(-c3noc([C@@]4(C)CCCc5sc(N)c(C#N)c54)n3)nc(N3CCCN(CCOC)C[C@@H]3C)n2)CC1` [Ia-129], the 50% inhibitory concentration (IC50) turned out to be 6 nM.

Take `C=CC(=O)N1CCN(c2cc(-c3noc([C@@]4(C)CCCc5sc(N)c(C#N)c54)n3)nc(O[C@H]3C4CC5CN(C)[C@@H]3[C@H]5C4)n2)CC1` (stereo partly shown) [Ia-51]: the concentration for half-maximal inhibition (IC50) was found to be 19 nM.

In turn, `C=CC(=O)N1CCN(c2cc(-c3noc([C@@]4(C)CCCc5sc(N)c(C#N)c54)n3)nc(N3CC[C@H](O)[C@@H]3C)n2)CC1` [Ia-75] came in with an IC50 of 180 nM.

Compound `C=CC(=O)N(C)CCOc1cc(-c2noc([C@@]3(C)CCCc4sc(N)c(C#N)c43)n2)nc(N2CCCN(C)C[C@@H]2C)n1` [Ia-74] came in with an IC50 of 61 nM.

`C=CC(=O)N1CC2CN(c3cc(-c4noc([C@@]5(C)CCCc6sc(N)c(C#N)c65)n4)nc(N4CCCN(C)C[C@@H]4C)n3)CC2C1` (stereo partly shown) [Ia-97] gave a half-inhibitory concentration (IC50) of 43 nM.

The next assay relates to pERK (Thr202/Tyr204) in NCI-H358_Cas9_SOS2 (SOS2 knocked). Kind of assay: ERK phosphorylation assay 2 (AlphaLISA SureFire Ultra p-ERK1/2). The settings on record: read-out: IC50 H358 pERK, ERK phosphorylation assay 2 (values marked with *). A general note: Alpha assays give light when donor and acceptor beads are brought close together.
Turning to `C=CC(=O)N1CCN(c2cc(-c3noc([C@@]4(C)CCCc5sc(N)c(C#N)c54)n3)nc(N3CCC4(CC(O)C4)C3)n2)CC1` (stereo partly shown) [Ia-76], the IC50 came to 1000 nM.

For the compound `C=CC(=O)N1CCN(c2cc(-c3noc([C@@]4(C)CCCc5sc(N)c(C#N)c54)n3)nc(OC(C)CN3CCN(C)CC3)n2)CC1` (stereo partly shown) [Ia-66], the concentration for half-maximal inhibition (IC50) is 124 nM.

In the case of `C=CC(=O)N1CCN(c2cc(-c3noc([C@@]4(C)CCCc5sc(N)c(C#N)c54)n3)nc(OC3CC4(CCN(C)C4)C3)n2)CC1` (stereo partly shown) [Ia-69], the IC50 amounted to 298 nM.

`C=CC(=O)N1CCN(c2cc(-c3noc([C@@]4(C)CCCc5sc(N)c(C#N)c54)n3)nc(O[C@H]3C4CC5CN(C)[C@@H]3[C@H]5C4)n2)CC1` (stereo partly shown) [Ia-51]: the IC50 turned out to be 98.5 nM.

Take `C=CC(=O)N1CCN(c2cc(-c3noc([C@@]4(C)CCCc5sc(N)c(C#N)c54)n3)nc(N3CC[C@H](O)[C@@H]3C)n2)CC1` [Ia-75]: the IC50 was determined as 553 nM.

The target in a further assay is KRASG12-dependent Ba/F3 cells (Homo sapiens, UniProt P01116, G12C, cells depend on it). As to the kind of experiment: Ba/F3 cell model proliferation assay (AlamarBlue, 72 h). Format: cell-based. The settings on record: Ba/F3 cells transduced with KRASG12C, read-out: IC50 Ba/F3 KRASG12C. How it is done: Ba/F3 Cell Model Generation and Proliferation Assay
Chain of KRASG12-dependent Ba/F3 cells (P01116 whole entry G12C, canonical isoform): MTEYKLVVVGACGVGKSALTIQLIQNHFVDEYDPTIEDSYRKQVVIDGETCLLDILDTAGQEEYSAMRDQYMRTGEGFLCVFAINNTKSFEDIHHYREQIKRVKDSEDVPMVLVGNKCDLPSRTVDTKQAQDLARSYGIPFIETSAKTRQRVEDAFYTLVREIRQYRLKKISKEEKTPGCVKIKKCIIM
Plasmids containing KRASG12 mutants were obtained from GeneScript. To generate KRASG12-dependent Ba/F3 models, Ba/F3 cells were transduced with retroviruses containing vectors that harbor KRASG12 isoforms. Platinum-E cells (Cell Biolabs) were used for retrovirus packaging. Retrovirus was added to Ba/F3 cells. To ensure infection, 4 μg/mL polybrene was added and cells were spinfected. […] Cells with an infection efficiency of 10% to 20% were further cultivated and puromycin selection with 1 μg/mL was initiated. As a control, parental Ba/F3 cells were used to show selection status. Selection was considered successful when parental Ba/F3 cells cultures died. To evaluate the transforming potential of KRASG12 mutations, the growth medium was no longer supplemented with IL-3. Ba/F3 cells harboring the empty vector were used as a control. Approximately ten days before conducting the experiments, puromycin was left out.
All treatments were performed in technical duplicates. The assay is run using a fully automated robotic system. Treated cells were incubated for 72 h at 37° C. with 5% CO2.
AlamarBlue™ (ThermoFisher), a viability stain, was added and fluorescence measured in the PerkinElmer Envision HTS Multilabel Reader.
In the case of `C=CC(=O)N1CCC(Oc2cc(-c3noc(C4(C)CCCc5sc(N)c(C#N)c54)n3)nc(N3CCN(C)C[C@@H]3C)c2)CC1` (stereo partly shown) [Ia-114], the GI50 is 12.6 nM.

Regarding `C=CC(=O)N1CCN(c2cc(-c3noc([C@@]4(C)CCCc5sc(N)c(C#N)c54)n3)nc(N3CCN(C)CC3)c2)CC1` [Ia-116], the GI50 is 208 nM.

On to `C=CC(=O)N1CC(N2CCN(c3cc(-c4noc([C@@]5(C)CCCc6sc(N)c(C#N)c65)n4)nc(N4CCCN(CCCOC)C[C@@H]4C)n3)CC2)C1` [Ia-99], for which the GI50 was found to be 1040 nM.

For the compound `C=CC(=O)N1CCN(c2cc(-c3noc([C@@]4(C)CCCc5sc(N)c(C#N)c54)n3)nc(N3CCCN(C)C[C@@H]3C)n2)CC1` [Ia-131], the GI50 is 22.4 nM.

For `C=CC(=O)N1CCN(c2cc(-c3noc([C@@]4(C)CCCc5sc(N)c(C#N)c54)n3)nc(N3CCCN(CC4(C)COC4)C[C@@H]3C)n2)CC1` [Ia-41], the GI50 turned out to be 10.2 nM.

For `C=CC(=O)N1CCN(c2cc(-c3noc(C4(C)CCCc5sc(N)c(C#N)c54)n3)nc(N3CCN(C)C[C@@H]3CC)c2)CC1` (stereo partly shown) [Ia-15], the GI50 came to 219 nM.

For `C=CC(=O)N1CCCN(c2cc(-c3noc([C@@]4(C)CCCc5sc(N)c(C#N)c54)n3)nc(O[C@@H](C)[C@@H]3CCCN3C)n2)CC1` [Ia-52], the GI50 came to 18.4 nM.

As to `C=CC(=O)N1CCN(c2cc(-c3noc(C4(C)CCCc5sc(N)c(C#N)c54)n3)nc(N3CCC(N4CC[C@@H](F)C4)CC3)c2)CC1` (stereo partly shown) [Ia-39], the GI50 came out at 87.6 nM.

With `C=CC(=O)N1CCC2(C1)CN(c1cc(-c3noc([C@@]4(C)CCCc5sc(N)c(C#N)c54)n3)cc(N3CCCN(C)C[C@@H]3C)n1)C2` [Ia-95], the GI50 worked out at 946 nM.

In the case of `C=CC(=O)N1CCN(c2cc(-c3noc([C@@]4(C)CCCc5sc(N)c(C#N)c54)n3)nc(N3CCCN(CCOC)C[C@@H]3C)n2)CC1` [Ia-129], the GI50 was 22.5 nM.

Regarding `C=CC(=O)N(C)CCOc1cc(-c2noc([C@@]3(C)CCCc4sc(N)c(C#N)c43)n2)nc(N2CCCN(C)C[C@@H]2C)n1` [Ia-74], the GI50 amounted to 254 nM.

For the compound `C=CC(=O)N1CC2CN(c3cc(-c4noc([C@@]5(C)CCCc6sc(N)c(C#N)c65)n4)nc(N4CCCN(C)C[C@@H]4C)n3)CC2C1` (stereo partly shown) [Ia-97], the GI50 came out at 967 nM.

A further assay has as its system pERK (Thr202/Tyr204) in NCI-H358 (KRAS G12C mutation). Kind of assay: ERK phosphorylation assay 1 (AlphaLISA SureFire Ultra p-ERK1/2). The settings on record: Homo sapiens, NCI-H358, read-out: IC50 H358 pERK.
Protocol: ERK Phosphorylation Assay
Materials Used for the Assay:
AlphaLISA SureFire Ultra p-ERK1/2 (Thr202/Tyr204) Assay Kit (ALSU-PERK-A500)
The cells are incubated for 1 h at room temperature and then incubated overnight in an incubator at 37° C. and 5% CO2 in a humidified atmosphere. 60 nL compound solution (10 mM DMSO stock solution) is then added using a Labcyte Echo 550 device. […] After 20 minutes of incubation at room temperature with shaking, 6 μL of each lysate sample is transferred to a 384-well Proxiplate and analyzed for pERK (Thr202/Tyr204) with the AlphaLISA SureFire Ultra pERK1/2 (Thr202/Tyr204) Assay Kit. 3 μL Acceptor Mix and 3 μL Donor Mix are added under subdued light and incubated for 2 h at room temperature in the dark, before the signal is measured on a PerkinElmer Envision HTS Multilabel Reader. The raw data were imported into and analyzed with the Boehringer Ingelheim proprietary software MegaLab (curve fitting based on the program PRISM, GraphPad Inc.).
Regarding `C=CC(=O)N1CCC(Oc2cc(-c3noc(C4(C)CCCc5sc(N)c(C#N)c54)n3)nc(N3CCN(C)C[C@@H]3C)c2)CC1` (stereo partly shown) [Ia-114], the IC50 was 4.1 nM.

Take `C=CC(=O)N1CCN(c2cc(-c3noc([C@@]4(C)CCCc5sc(N)c(C#N)c54)n3)nc(N3CCN(C)CC3)c2)CC1` [Ia-116]: the IC50 was 6.4 nM.

With `C=CC(=O)N1CCN(c2cc(-c3noc([C@@]4(C)CCCc5sc(N)c(C#N)c54)n3)nc(N3CCCN(C)C[C@@H]3C)n2)CC1` [Ia-131], the IC50 turned out to be 6.2 nM.

As for `C=CC(=O)N1CCN(c2cc(-c3noc(C4(C)CCCc5sc(N)c(C#N)c54)n3)nc(N3CCN(C)C[C@@H]3CC)c2)CC1` (stereo partly shown) [Ia-15], the IC50 was 7.3 nM.

Regarding `C=CC(=O)N1CCN(c2cc(-c3noc(C4(C)CCCc5sc(N)c(C#N)c54)n3)nc(N3CCC(N4CC[C@@H](F)C4)CC3)c2)CC1` (stereo partly shown) [Ia-39], the IC50 came out at 6.2 nM.

`C=CC(=O)N1CCN(c2cc(-c3noc([C@@]4(C)CCCc5sc(N)c(C#N)c54)n3)nc(N3CCCN(CCOC)C[C@@H]3C)n2)CC1` [Ia-129]: the 50% inhibitory concentration (IC50) was 6.4 nM.
